≈ marks a conversion by molar mass, not a printed value.
What follows are compounds tested on Mycobacterium tuberculosis (assay: Bacteriostatic activity against Mycobacterium bovis BCG after 7 days by Alamar Blue assay). Details: variant bovis BCG, 168 h.
Assay type: functional

With `CC(C)(C)OC(=O)N[C@@H](CSC(Cl)=C(Cl)Cl)C(=O)N[C@@H]1[C@@H](O)[C@H](O)[C@@H](CO)O[C@H]1SC1CCCCC1` as the compound, how does the MIC read?
Its MIC is no less than 1000 µM.

For `N[C@@H](CSC(Cl)=C(Cl)Cl)C(=O)N[C@@H]1[C@@H](O)[C@H](O)[C@@H](CO)O[C@@H]1SC1CCCCC1`, which MIC is on record?
The MIC was 62.5 µM (≈ 31.9 µg/mL).

With `N[C@@H](CSC(Cl)=C(Cl)Cl)C(=O)N[C@@H]1[C@@H](O)[C@H](O)[C@@H](CO)O[C@H]1SC1CCCCC1` as the compound, how does the MIC read?
The MIC was 125 µM (≈ 63.7 µg/mL).

Which MIC does the source give for `CC(C)(C)OC(=O)N[C@@H](CSC(Cl)=C(Cl)Cl)C(=O)N[C@@H]1[C@@H](O)[C@H](O)[C@@H](CO)O[C@@H]1SC1CCCCC1` here?
Its MIC is 500 µM (≈ 305 µg/mL).
